For orientation: inhibition means the percentage by which the read-out fell short of the control.

This is an account of results in ChEMBL document CHEMBL6177930, “2-(4-Bromobenzyl) tethered 4-amino aryl/alkyl-5,6,7,8-tetrahydrobenzo[4,5]thieno[2,3-d]pyrimidines: design, synthesis, anticancer assessment via dual topoisomerase-I/II inhibition, and in silico studies” (RSC Med Chem, 2025).

Holding throughout (format): functional
What all share (conditions): time 48-72 hrs

In assay [1] the test system is MCF7. Description: Antiproliferative activity against human MCF7 cells assessed as inhibition of cell growth at 10 uM measured after 48 to 72 hrs by MTT assay relative to control. Background: Tetrazolium dyes change colour on reduction, which living cells bring about.
The test system of assay [2] is A549. Kind of assay: Antiproliferative activity against human A549 cells assessed as inhibition of cell growth at 10 uM measured after 48 to 72 hrs by MTT assay relative to control.
The test system of assay [3] is FaDu. Kind of assay: Antiproliferative activity against human FaDu cells assessed as inhibition of cell growth at 10 uM measured after 48 to 72 hrs by MTT assay relative to control.
Assay [4] concerns MDA-MB-231. Description: Antiproliferative activity against human MDA-MB-231 cells assessed as inhibition of cell growth at 10 uM measured after 48 to 72 hrs by MTT assay relative to control.
A short description of assay [5]: Antiproliferative activity against human HCC cells assessed as inhibition of cell growth at 10 uM measured after 48 to 72 hrs by MTT assay relative to control.
Assay [6] deals with T47D. Description: Antiproliferative activity against human T47D cells assessed as inhibition of cell growth at 10 uM measured after 48 to 72 hrs by MTT assay relative to control.

Consider `OCCNc1nc(Cc2ccc(Br)cc2)nc2sc3c(c12)CCCC3`, for which the inhibition at 10 µM worked out at 2.71% in assay [1]; 1.21% in assay [2]; 50.2% in assay [3]; 2.1% in assay [4]; 2% in assay [5]; 5.73% in assay [6].
For `CNc1nc(Cc2ccc(Br)cc2)nc2sc3c(c12)CCCC3`, the inhibition at 10 µM in assay [1] was found to be 18.7%; in assay [2] it was 2.65%; in assay [3], 23.4%; in assay [4], 1.09%; in assay [5], 1.28%; in assay [6] it was 1.69%.
For `Brc1ccc(Cc2nc(NC3CC3)c3c4c(sc3n2)CCCC4)cc1`, the inhibition at 10 µM in assay [1] is 38.5%; in assay [2] it was 1.11%; in assay [3] it was 28.9%; in assay [4], 2.23%; in assay [5], 2.11%; in assay [6] it was 1.31%.
Turning to `Nc1ccccc1CNc1nc(Cc2ccc(Br)cc2)nc2sc3c(c12)CCCC3`, the inhibition at 10 µM in assay [1] stood at 2.66%; in assay [2] it was 1.33%; in assay [3], 25.9%; in assay [4] it was 5.74%; in assay [5], 1.89%; in assay [6], 1.79%.
Turning to `C#Cc1cccc(Nc2ncnc3cc(OCCOC)c(OCCOC)cc23)c1` [ERLOTINIB], the inhibition at 10 µM was determined as 6.71% in assay [1]; 19.7% in assay [3]; 19.6% in assay [4]; 4.19% in assay [5]; 1.27% in assay [6].
As for `Fc1cc(CNc2nc(Cc3ccc(Br)cc3)nc3sc4c(c23)CCCC4)cc(F)c1F`, the inhibition at 10 µM in assay [1] was determined as 8.28%; in assay [2], 6.63%; in assay [3], 25.8%; in assay [4] it was 2.39%; in assay [5] it was 1.57%; in assay [6] it was 3.01%.
In the case of `NCCCNc1nc(Cc2ccc(Br)cc2)nc2sc3c(c12)CCCC3`, the inhibition at 10 µM in assay [1] came out at 8.28%; in assay [2], 8.86%; in assay [3], 54.1%; in assay [4], 1.12%; in assay [5] it was 8.12%; in assay [6], 8.24%.
Regarding `Brc1ccc(Cc2nc(-n3ccnc3)c3c4c(sc3n2)CCCC4)cc1`, the inhibition at 10 µM in assay [1] worked out at 3.19%; in assay [2] it was 2.45%; in assay [3], 46.9%; in assay [4] it was 12.8%; in assay [5] it was 2.03%; in assay [6] it was 1.99%.
As for `CCCNc1nc(Cc2ccc(Br)cc2)nc2sc3c(c12)CCCC3`, the inhibition at 10 µM in assay [1] was determined as 3.16%; in assay [2], 3.63%; in assay [3], 56.2%; in assay [4] it was 3.11%; in assay [5], 1.37%; in assay [6], 17.3%.
On to `Fc1ccccc1CNc1nc(Cc2ccc(Br)cc2)nc2sc3c(c12)CCCC3`, for which the inhibition at 10 µM in assay [1] was determined as 19.4%; in assay [2], 3.45%; in assay [3], 26.2%; in assay [4], 6.27%; in assay [5] it was 2.55%; in assay [6], 2.14%.
Consider `Brc1ccc(Cc2nc(NC3CCCCC3)c3c4c(sc3n2)CCCC4)cc1`, for which the inhibition at 10 µM in assay [1] was 19%; in assay [2], 1.56%; in assay [3], 27.4%; in assay [4], 1.22%; in assay [5], 12.8%; in assay [6], 1.35%.
With `Fc1ccc(CNc2nc(Cc3ccc(Br)cc3)nc3sc4c(c23)CCCC4)cc1`, the inhibition at 10 µM in assay [1] is 0.55%; in assay [2], 1.55%; in assay [3], 21.4%; in assay [4] it was 10.8%; in assay [5], 1.36%; in assay [6], 2.58%.
